Assay results as given in BindingDB's records for patent US20250313563 (The Broad Institute, 2025).
“And” between values parts separate entries of the source, which are not always exact repeats. Equal values may be shown once.

Columns and labels:
[1] = biological target: Glycogen synthase kinase-3 alpha (Homo sapiens, UniProt P49840); assay: TR-FRET Assay
Outline: (§1)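 TR-FRET readout: streptavidin-d2 (40 nM in added detection mix) plus Tb-anti-pSer641 Ab (2 nM in mix). Steps were 30 min compound preincubation, kinase reaction, then EDTA stop.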

[2] = biological target: Glycogen synthase kinase-3 beta (Homo sapiens, UniProt P49841); assay: TR-FRET Assay
Sequence of Glycogen synthase kinase-3 beta (P49841 whole entry): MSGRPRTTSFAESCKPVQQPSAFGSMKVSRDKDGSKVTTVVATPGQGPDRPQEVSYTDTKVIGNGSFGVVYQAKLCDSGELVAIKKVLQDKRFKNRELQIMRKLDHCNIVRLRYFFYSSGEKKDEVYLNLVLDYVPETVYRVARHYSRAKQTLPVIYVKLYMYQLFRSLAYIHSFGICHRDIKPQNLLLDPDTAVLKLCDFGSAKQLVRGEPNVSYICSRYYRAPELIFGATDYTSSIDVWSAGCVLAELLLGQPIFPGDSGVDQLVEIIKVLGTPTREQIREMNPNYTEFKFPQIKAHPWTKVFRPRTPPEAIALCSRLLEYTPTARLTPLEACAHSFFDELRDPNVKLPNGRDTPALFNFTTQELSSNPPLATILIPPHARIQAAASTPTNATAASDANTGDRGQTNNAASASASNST
Outline: as §1

Sequence of Glycogen synthase kinase-3 alpha (P49840 whole entry): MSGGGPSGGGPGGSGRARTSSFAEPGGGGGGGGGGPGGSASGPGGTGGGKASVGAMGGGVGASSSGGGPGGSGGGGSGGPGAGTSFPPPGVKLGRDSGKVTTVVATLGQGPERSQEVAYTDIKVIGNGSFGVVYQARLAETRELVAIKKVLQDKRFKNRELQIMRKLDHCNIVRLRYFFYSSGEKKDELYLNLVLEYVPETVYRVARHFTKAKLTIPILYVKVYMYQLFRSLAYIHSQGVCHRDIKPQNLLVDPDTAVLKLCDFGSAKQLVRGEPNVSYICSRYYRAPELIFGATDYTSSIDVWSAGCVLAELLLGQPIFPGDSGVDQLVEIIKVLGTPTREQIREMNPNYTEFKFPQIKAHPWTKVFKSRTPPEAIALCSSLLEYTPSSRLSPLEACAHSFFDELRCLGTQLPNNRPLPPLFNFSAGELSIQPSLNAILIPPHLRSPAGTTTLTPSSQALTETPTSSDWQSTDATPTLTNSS

Row | SMILES | IC50 [1] | IC50 [2]
1 | CC[C@]1(c2cccc(N(c3cccnc3)C(C)C)c2)C2=CN=NC2NC2=C1C(=O)CC(C)(C)C2 (stereo partly specified) [US20250313563, Compound 917086] | < 100 nM and 100 to 1000 nM | < 100 nM and 1000 to 5000 nM
2 | CC[C@]1(c2cccc(C(F)F)c2)C2=CN=NC2NC2=C1C(=O)CC(C)(C)C2 (stereo partly specified) [US20250313563, Compound 826717] | < 100 nM and 100 to 1000 nM | < 100 nM and 1000 to 5000 nM
3 | CCC1(c2ccccc2)C2=C(N=NC2)NC2=C1C(=O)CSC2 (stereo unspecified) [US20250313563, Compound 801406] | 1000 to 5000 nM | > 5000 nM
4 | CC[C@@]1(c2cccc(-c3ncnn3C)c2)C2=CN=NC2NC2=C1C(=O)CC(C)(C)C2 (stereo partly specified) [US20250313563, Compound 945482] | 1000 to 5000 nM and > 5000 nM | > 5000 nM
5 | CC[C@@]1(c2cccc(C(F)(F)F)c2)C2=CN=NC2NC2=C1C(=O)N[C@@H](c1ccccc1)C2 (stereo partly specified) [US20250313563, Compound 945364] | > 5000 nM | > 5000 nM
6 | CC[C@@]1(c2cccc(-c3ccnc(C)c3)c2)C2=CN=NC2NC2=C1C(=O)[C@H](F)C(C)(C)C2 (stereo partly specified) [US20250313563, Compound 945476] | < 100 nM and 100 to 1000 nM | 100 to 1000 nM and > 5000 nM
7 | CC[C@@]1(c2cccc(C(F)(F)F)c2)C2=C(N=NC2)NC2=C1C(=O)N[C@@H]2C [US20250313563, Compound 945380] | > 5000 nM | > 5000 nM
8 | CCC1(c2cccc(-c3cc(C)ncc3F)c2)C2=CN=NC2NC2=C1C(=O)NC(C)(C)C2 (stereo unspecified) [US20250313563, Compound 947401] | < 100 nM and 100 to 1000 nM | 100 to 1000 nM and > 5000 nM
9 | CC[C@@]1(c2cccc(C3CCCC3)c2)C2=CN=NC2NC2=C1C(=O)CC(C)(C)C2 (stereo partly specified) [US20250313563, Compound 949399] | 1000 to 5000 nM | > 5000 nM
10 | CC[C@@]1(c2cccc(C(F)(F)F)c2)C2=CN=NC2NC2=C1C(=O)N(c1ccccc1C)CC2 (stereo partly specified) [US20250313563, Compound 949129] | > 5000 nM | > 5000 nM
11 | CC1(C)CC(=O)C2=C(C1)NC1=C(CN=N1)[C@]21CCO[C@@H](C(C)(C)C)C1 [US20250313563, Compound 912106] | 100 to 1000 nM | 1000 to 5000 nM
12 | CC[C@@]1(c2ccccc2)C2=CN=NC2NC2=C1C(=O)C[C@]1(CCOC1)C2 (stereo partly specified) [US20250313563, Compound 816881] | 100 to 1000 nM | 1000 to 5000 nM
13 | CC[C@]1(c2cccc(Oc3ncccn3)c2)C2=CN=NC2NC2=C1C(=O)NC(C)(C)C2 (stereo partly specified) [US20250313563, Compound 949335] | > 5000 nM | > 5000 nM
14 | CC(=O)N1CCCC2(CC1)C1=CN=NC1NC1=C2C(=O)CC(C)(C)C1 (stereo unspecified) [US20250313563, Compound 889575] | 100 to 1000 nM | 1000 to 5000 nM
15 | C[S@@+]([O-])c1cccc([C@]2(C)C3=C(CC(C)(C)CC3=O)NC3=C2C(CC(C)(C)C)N=N3)c1 (stereo partly specified) [US20250313563, Compound 126191B:] | > 5000 nM | 100 to 1000 nM
16 | CC(C)(C)CC1=C2C(N=N1)NC1=C(C(=O)CC(C)(C)C1)[C@@]21CCCc2ccccc21 (stereo partly specified) [US20250313563, Compound 811596] | 1000 to 5000 nM | 100 to 1000 nM
17 | CC[C@@]1(c2cccc(C(F)(F)F)c2)C2=CN=NC2NC2=C1C(=O)C[C@]1(CCN(C)C1=O)C2 (stereo partly specified) [US20250313563, Compound 950325] | > 5000 nM | > 5000 nM
18 | CCC1(c2cccc(C(F)(F)F)c2)C2=C(N=NC2)NC2=C1C(=O)NCCC2 (stereo unspecified) [US20250313563, Compound 913355] | > 5000 nM | > 5000 nM
19 | CC[C@]1(c2cccc(-c3cn(C)nc3C)c2)C2=CN=NC2NC2=C1C(=O)NC(C)(C)C2 (stereo partly specified) [US20250313563, Compound 945480] | 1000 to 5000 nM | > 5000 nM
20 | CCC1(c2cccc(-c3ccncc3F)c2)C2=C(CC(C)(C)NC2=O)NC2N=NC(Cl)=C21 (stereo unspecified) [US20250313563, Compound 949324] | < 100 nM and 100 to 1000 nM | < 100 nM and 1000 to 5000 nM
21 | Cn1ccc(S(=O)(=O)N2CC[C@@]3(C2)C2=C(N=NC2)NC2=C3C(=O)CC(C)(C)C2)n1 [US20250313563, Compound 943484] | < 100 nM and 100 to 1000 nM | < 100 nM and 1000 to 5000 nM
22 | Cn1ccc(-c2cccc([C@]3(C)C4=C(CC(C)(C)CC4=O)NC4=C3C(CC(C)(C)C)N=N4)c2)n1 (stereo partly specified) [US20250313563, Compound 126366] | 1000 to 5000 nM | 100 to 1000 nM

Continued, values first:

Row | IC50 [1] | IC50 [2] | SMILES
23 | 100 to 1000 nM | 1000 to 5000 nM | CC[C@@]1(c2cccc(-c3cnn(-c4cnccn4)c3)c2)C2=CN=NC2NC2=C1C(=O)NC(C)(C)C2 (stereo partly specified) [US20250313563, Compound 952207]
24 | < 100 nM | < 100 nM | CC[C@@]1(c2cccc(-c3ccnc4ccc(Cl)cc34)c2)C2=CN=NC2NC2=C1C(=O)N(C)C(C)(C)C2 (stereo partly specified) [US20250313563, Compound 948517]
25 | < 100 nM | 100 to 1000 nM | CCc1cccc(C2(CC)C3=C(N=NC3)NC3=C2C(=O)CC(C)(C)C3)c1 (stereo unspecified) [US20250313563, Compound 949083]
26 | < 100 nM | < 100 nM | CC[C@]1(c2cccc(Cc3ncccn3)c2)C2=CN=NC2NC2=C1C(=O)CC(C)(C)C2 (stereo partly specified) [US20250313563, Compound 947498]
27 | 100 to 1000 nM | 1000 to 5000 nM | CC1CCCC12C1=C(N=NC1)NC1=C2C(=O)CC(C)(C)C1 (stereo unspecified) [US20250313563, Compound 826765]
28 | < 100 nM | < 100 nM | CCC1(c2cccc(C(F)(F)F)c2)C2=C(CC(C)(C)CC2=O)NC2N=NC(Br)=C21 (stereo unspecified) [US20250313563, Compound 802358]
29 | 100 to 1000 nM | 100 to 1000 nM | C[C@H]1C[C@@]2(CCO1)C1=C(N=NC1)NC1=C2C(=O)CC(C)(C)C1 [US20250313563, Compound 924307]
30 | < 100 nM | < 100 nM | CC(=O)N1CC2(C1)C[C@@]1(CO2)C2=C(N=NC2)NC2=C1C(=O)CC(C)(C)C2 [US20250313563, Compound 926861]
31 | < 100 nM | < 100 nM | CCC1(c2cccc(C(F)(F)F)c2)C2=CN=NC2NC2=C1C(=O)CC(C)(C)C2 (stereo unspecified) [US20250313563, Compound 785762]
32 | 100 to 1000 nM | 100 to 1000 nM | CC1(C)CC(=O)C2=C(C1)NC1=C(CN=N1)[C@]21C[C@@]2(CCN(CC(F)F)C2)C1 [US20250313563, Compound 913139]
33 | < 100 nM | < 100 nM | CC[C@]1(c2cccc(-c3cnn(C)c3)c2)C2=C(CC(C)(C)CC2=O)NC2N=NC(C(F)(F)F)=C21 (stereo partly specified) [US20250313563, Compound 811565]
34 | 100 to 1000 nM | 100 to 1000 nM | CC[C@]1(c2cccc(-c3ccnc(C)c3)c2)C2=CN=NC2NC2=C1C(=O)NC(C)(C)C2 (stereo partly specified) [US20250313563, Compound 927325]
35 | < 100 nM | < 100 nM | CCN(C(C)=O)c1cccc([C@@]2(CC)C3=CN=NC3NC3=C2C(=O)CC(C)(C)C3)c1 (stereo partly specified) [US20250313563, Compound 909214]
36 | < 100 nM | < 100 nM | CCC1(c2cccc(N3CCOCC3)c2)C2=C(CC(C)(C)NC2=O)NC2N=NC(C(F)(F)F)=C21 (stereo unspecified) [US20250313563, Compound 947863]
37 | < 100 nM | < 100 nM | CCC1(c2cccc(C3CCCC3)c2)C2=CN=NC2NC2=C1C(=O)CC(C)(C)C2 (stereo unspecified) [US20250313563, Compound 949082]
38 | < 100 nM | < 100 nM and 1000 to 5000 nM | CC[C@@]1(c2cccc(-c3ccncc3F)c2)C2=CN=NC2NC2=C1C(=O)NC(C)(C)C2 (stereo partly specified) [US20250313563, Compound 947869]

Row | IC50 [1] | IC50 [2] | SMILES
39 | < 100 nM | 100 to 1000 nM | CC[C@]1(c2cccc(-c3ccncc3)c2)C2=CN=NC2NC2=C1C(=O)C[C@H](C)C2 (stereo partly specified) [US20250313563, Compound 874318]
40 | < 100 nM | < 100 nM | CC1(C)CC(=O)C2=C(C1)NC1=C(CN=N1)C21CN(S(=O)(=O)c2ccc(F)cc2)C1 [US20250313563, Compound 917144]
41 | < 100 nM | < 100 nM | CC[C@]1(c2cccc(-c3ccncc3C)c2)C2=CN=NC2NC2=C1C(=O)N[C@]1(CCOC1)C2 (stereo partly specified) [US20250313563, Compound 948640]
42 | < 100 nM | < 100 nM | CC(C)C1CC(C(=O)N2CC3(C2)CC2(CO3)C3=C(N=NC3)NC3=C2C(=O)CC(C)(C)C3)C1 (stereo unspecified) [US20250313563, Compound 947273]
43 | < 100 nM | 100 to 1000 nM | CC1(C)CC(=O)C2=C(C1)NC1=C(CN=N1)C2(C)c1cc(C(F)(F)F)ccc1F (stereo unspecified) [US20250313563, Compound 810376]
44 | < 100 nM | 100 to 1000 nM | CC1(C)CC(=O)C2=C(C1)NC1=C(CN=N1)C2(C)c1cccc(Br)c1 (stereo unspecified) [US20250313563, Compound 789277]
45 | < 100 nM | < 100 nM | Cc1cccc(S(=O)(=O)N2CCC3(CC2)C2=C(N=NC2)NC2=C3C(=O)CC(C)(C)C2)c1 [US20250313563, Compound 947261]
46 | < 100 nM | < 100 nM | CC[C@@]1(c2cccc(-c3ccncc3C)c2)C2=CN=NC2NC2=C1C(=O)N[C@@]1(CCOC1)C2 (stereo partly specified) [US20250313563, Compound 948644]
47 | < 100 nM | 100 to 1000 nM | CC[C@@]1(c2cccc(-c3cc(C)nnc3C)c2)C2=C(CC(C)(C)NC2=O)NC2N=NC(C)=C21 (stereo partly specified) [US20250313563, Compound 949333]
48 | < 100 nM | 100 to 1000 nM | CCC1(c2cccc(C(F)(F)F)c2)C2=CN=NC2NC2=C1C(=O)N(c1cscn1)CC2 (stereo unspecified) [US20250313563, Compound 950777]
49 | < 100 nM | 100 to 1000 nM | CC[C@@]1(c2cccc(C(F)(F)F)c2)C2=CN=NC2NC2=C1C(=O)C[C@@]1(CCN(C)C1=O)C2 (stereo partly specified) [US20250313563, Compound 950326]
50 | < 100 nM | < 100 nM and 100 to 1000 nM | CC[C@@]1(c2cccc(-c3ccncc3C)c2)C2=CN=NC2NC2=C1C(=O)NC1(CCCC1)C2 (stereo partly specified) [US20250313563, Compound 948022]
51 | < 100 nM | 100 to 1000 nM | CC[C@]1(c2cccc(C(F)(F)F)c2)C2=CN=NC2NC2=C1C(=O)N[C@H](C)C2 (stereo partly specified) [US20250313563, Compound 912096]
52 | < 100 nM | < 100 nM | CC[C@@]1(c2cccc(-c3ccnn3C)c2)C2=CN=NC2NC2=C1C(=O)N[C@@]1(CCOC1)C2 (stereo partly specified) [US20250313563, Compound 948015]
53 | < 100 nM | 100 to 1000 nM | CCC1(c2cccc(-c3ncnn3C)c2)C2=CN=NC2NC2=C1C(=O)CC(C)(C)C2 (stereo unspecified) [US20250313563, Compound 943532]
